The target in the assay is T1, human Npt2a (Homo sapiens, UniProt Q06495).
T1 construct: expressed in transfected cells
T1 sequence (Q06495 1-639): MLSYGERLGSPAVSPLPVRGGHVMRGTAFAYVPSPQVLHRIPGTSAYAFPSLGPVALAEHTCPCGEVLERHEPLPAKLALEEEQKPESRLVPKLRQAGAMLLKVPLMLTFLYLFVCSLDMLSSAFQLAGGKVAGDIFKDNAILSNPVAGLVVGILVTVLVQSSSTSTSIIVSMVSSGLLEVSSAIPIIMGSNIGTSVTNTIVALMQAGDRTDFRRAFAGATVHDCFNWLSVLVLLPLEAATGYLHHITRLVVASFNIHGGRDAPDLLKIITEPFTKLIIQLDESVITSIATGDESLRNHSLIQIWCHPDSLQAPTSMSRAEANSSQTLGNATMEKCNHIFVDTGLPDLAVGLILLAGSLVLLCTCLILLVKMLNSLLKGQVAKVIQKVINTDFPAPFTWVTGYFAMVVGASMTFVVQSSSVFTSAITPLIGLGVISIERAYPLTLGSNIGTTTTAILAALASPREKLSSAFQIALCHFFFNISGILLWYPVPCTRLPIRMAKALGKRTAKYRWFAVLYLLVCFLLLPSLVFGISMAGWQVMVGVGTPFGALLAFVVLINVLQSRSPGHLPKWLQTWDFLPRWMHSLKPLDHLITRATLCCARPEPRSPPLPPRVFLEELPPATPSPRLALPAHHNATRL
Nature of the assay: Npt2a activity cell based assay, membrane potential dye, CHO T-REx hNpt2a cells. The settings on record: doxycycline-induced, depolarization by sodium phosphate influx, average or median values if tested more than once. On the procedure: For measuring Npt2a activity in a cell based assay, a stable CHO cell line with inducible Npt2a expression was generated. Therefore, CHO T-Rex cells (life technologies cat. R718-07) were stably transfected with doxycycline-inducible human NPT2a (pcDNA5TO-hNpt2a). The obtained CHO T-REx hNpt2a cells were routinely cultured in Dulbecco's MEM/F12 (4.5 g/l Glucose, Gibco cat. 21331-020; 500 mL) supplemented with 10 ml Glutamax 100×, Sodium pyruvate (7 mL of 100 mM solution), HEPES (10 mL of 1 M solution), Sodium bicarbonate (10 mL of 7.5% solution), 10% Fetal Bovine Serum Tetracycline free (Clontech cat. 631106, 500 ml), Penicillin-Streptomycin (5 mL of 100× Solution), Blasticidin 10 μg/mL and 400 μg/mL Hygromycin.
Activity of Npt2a was detected by following depolarization of cellular membrane potential by influx of sodium phosphate using fluorescent membrane potential dye kit BLUE (Molecular devices cat. R8034). For Npt2a activity measurements, CHO T-Rex hNpt2a cells were seeded into 1536 well microtiter plates (GREINER Bio-One cat. 782092) with 750 cells/well in 7 μL/w of complete medium (2% Tetracycline-free FBS, 2% Poly-D-Lysine) without selective agents+Doxycycline 0.5 μg/mL to induce Npt2a gene expression, and grown for 24 h at 37° C., 5% carbon dioxide.
On the day of experiment a 1×MPdye Loading Solution was freshly prepared by re-suspending 15 mg of Blue MPdye powder in 10 mL of NHE buffer sodium-free (140 mM N-Methyl-D-glucamine, 5.4 mM KCl, 1 mM CaCl2, 11 mM D(±)-Glucose water free, 1.2 mM MgCl2, 10 mM HEPES; pH 7.4 (adjusted with hydrochloric acid); sterile filtered). 5 μl medium was removed from plates by robotic manipulation, then 5 μL/well of sodium-free NHE buffer was added. After incubation for 2 min, this washing step was repeated once. Then, 5 μL/w of buffer was removed from plates and cells were incubated for 5 min at room temperature with 5 μL/w of MPdye Loading Solution (1× in Sodium-free NHE Buffer). Test compounds were added to the cells at final test concentrations between 50 μM and 1 nM (0.6 μL/well, final DMSO 0.6%, prepared in MPDye Loading Solution) and incubated for 5 min at room temperature.
Plates were analyzed with an in house CCD camera device using a λexc 510-545 nm/λem 565-625 nm filter. Fluorescence was detected for 15 sec (background measurement M1). Activity of Npt2a was triggered by addition of 2 μL/well of 30 mM Na+ and 1 mM phosphate (prepared in a mixture of NHE Buffer Na+ free and NHE Buffer 140 mM Na+). Fluorescence was followed for 2-3 min (depolarization measurement M2). Data was normalized to cell number and dye loading efficiency by calculating M2/M1. This quotient was plotted against test compound concentration. Graph Pad Prism or equivalent in house software was used to create sigmoidal dose-response curves (variable slope) and determine IC50 values.
The compound `Cc1nn(-c2cc(Nc3c(C)c(-c4ccc(C#N)cc4)nn3CC3CC3)ncn2)c(C)c1C(O)C(F)(F)F` (racemic) [Example 358, 4-{1-(cyclopropylmethyl)-5-[(6-{3,5-dimethyl-4-[(±)-2,2,2-trifluoro-1-hydroxyethyl]-1H-pyrazol-1-yl}pyrimidin-4-yl)amino]-4-methyl-1H-pyrazol-3-yl}benzonitrile] showed an IC50 of 10 nM.

For `Cc1cc(C)n(-c2cc(Nc3c(C)c(-c4ccc(F)cc4)nn3CC(O)C3CC3)ncn2)n1` (racemic) [Example 369, (±)-1-cyclopropyl-2-[5-{[6-(3,5-dimethyl-1H-pyrazol-1-yl)pyrimidin-4-yl]amino}-3-(4-fluorophenyl)-4-methyl-1H-pyrazol-1-yl]ethanol], the IC50 came to 420 nM.

Compound `Cc1nn(-c2cc(Nc3c(C)c(-c4ccc(F)cc4)nn3CC3CC3)ncn2)c(C)c1C(O)C(F)(F)F` (racemic) [Example 374, (±)-1-[1-(6-{[1-(cyclopropylmethyl)-3-(4-fluorophenyl)-4-methyl-1H-pyrazol-5-yl]amino}pyrimidin-4-yl)-3,5-dimethyl-1H-pyrazol-4-yl]-2,2,2-trifluoroethanol] yielded an IC50 of 63 nM.

Take `Cc1nn(-c2cc(Nc3c(C)c(-c4ccc(F)cc4)nn3CC3CC3)ncn2)c2c1C(O)(C(F)(F)F)CC2` (racemic) [Example 386, (±)-1-(6-{[1-(cyclopropylmethyl)-3-(4-fluorophenyl)-4-methyl-1H-pyrazol-5-yl]amino}pyrimidin-4-yl)-3-methyl-4-(trifluoromethyl)-1,4,5,6-tetrahydrocyclopenta[c]pyrazol-4-ol]: the IC50 came to 12 nM.

The compound `Cc1nn(-c2cc(Nc3c(C)c(-c4ccc(C#N)cc4)nn3C)ncn2)c(C)c1C(O)C(F)(F)F` (racemic) [Example 387, (±)-4-{5-[(6-{3,5-dimethyl-4-[2,2,2-trifluoro-1-hydroxyethyl]-1H-pyrazol-1-yl}pyrimidin-4-yl)amino]-1,4-dimethyl-1H-pyrazol-3-yl}benzonitrile] yielded an IC50 of 70 nM.

`Cc1nn(-c2cc(Nc3c(C)c(-c4ccc(F)cc4)nn3CC3CC3)ncn2)c(C)c1C(O)C(F)F` (racemic) [Example 392, (±)-1-[1-(6-{[1-(cyclopropylmethyl)-3-(4-fluorophenyl)-4-methyl-1H-pyrazol-5-yl]amino}pyrimidin-4-yl)-3,5-dimethyl-1H-pyrazol-4-yl]-2,2-difluoroethanol]: the IC50 was 18 nM.

Compound `Cc1c(-c2ccc(F)cc2)nn(CC2CC2)c1Nc1cc(-n2nc3c(c2C)C(O)(C(F)(F)F)CC3)ncn1` (racemic) [Example 403, (±)-2-(6-{[1-(cyclopropylmethyl)-3-(4-fluorophenyl)-4-methyl-1H-pyrazol-5-yl]amino}pyrimidin-4-yl)-3-methyl-4-(trifluoromethyl)-2,4,5,6-tetrahydrocyclopenta[c]pyrazol-4-ol] returned an IC50 of 12 nM.

Turning to `Cc1c(-c2ccc(F)cc2)nn(CC2CC2)c1Nc1cc(-n2nc3c(c2C)C(C)(O)CC3)ncn1` (racemic) [Example 404, (±)-2-(6-{[1-(cyclopropylmethyl)-3-(4-fluorophenyl)-4-methyl-1H-pyrazol-5-yl]amino}pyrimidin-4-yl)-3,4-dimethyl-2,4,5,6-tetrahydrocyclopenta[c]pyrazol-4-ol], half-maximal inhibition (IC50) required 13 nM.

As to `Cc1nn(-c2cc(Nc3c(C)c(-c4ccc(F)cc4)nn3CC3CC3)ncn2)c(C)c1C(O)C1CC1` (racemic) [Example 405, (±)-cyclopropyl[1-(6-{[1-(cyclopropylmethyl)-3-(4-fluorophenyl)-4-methyl-1H-pyrazol-5-yl]amino}pyrimidin-4-yl)-3,5-dimethyl-1H-pyrazol-4-yl]methanol], the midpoint of inhibition, the IC50, lay at 14 nM.

The compound `COc1c(-c2ccc(C#N)cc2)nn(C)c1Nc1cc(-n2nc(C)c(C(O)C(F)(F)F)c2C)ncn1` (racemic) [Example 425, (±)-4-{5-[(6-{3,5-dimethyl-4-[2,2,2-trifluoro-1-hydroxyethyl]-1H-pyrazol-1-yl}pyrimidin-4-yl)amino]-4-methoxy-1-methyl-1H-pyrazol-3-yl}benzonitrile] returned an IC50 of 415 nM.

In the case of `COc1c(Nc2cc(-n3nc(C)c(C(O)C4CC4)c3C)ncn2)nn(C)c1-c1ccc(C#N)cc1` (racemic) [Example 459, (±)-4-{3-[(6-{4-[cyclopropyl(hydroxy)methyl]-3,5-dimethyl-1H-pyrazol-1-yl}pyrimidin-4-yl)amino]-4-methoxy-1-methyl-1H-pyrazol-5-yl}benzonitrile], the IC50 was determined as 46 nM.

`Cc1nn(-c2cc(Nc3c(C)c(-c4ccc(C(F)F)cc4)nn3CC3CC3)ncn2)c(C)c1C(O)C1CC1` (racemic) [Example 460, (±)-cyclopropyl {1-[6-({1-(cyclopropylmethyl)-3-[4-(difluoromethyl)phenyl]-4-methyl-1H-pyrazol-5-yl}amino)pyrimidin-4-yl]-3,5-dimethyl-1H-pyrazol-4-yl}methanol] yielded an IC50 of 98 nM.

For `Cc1nn(-c2cc(Nc3c(C)c(-c4ccc(F)cc4)nn3CC3CC3)ncn2)c(C)c1C(N(C)C)C(F)(F)F` (racemic) [Example 504, N-[1-(cyclopropylmethyl)-3-(4-fluorophenyl)-4-methyl-1H-pyrazol-5-yl]-6-{4-[(±)-1-(dimethylamino)-2,2,2-trifluoroethyl]-3,5-dimethyl-1H-pyrazol-1-yl}pyrimidin-4-amine], half-maximal inhibition (IC50) was put at 5 nM.

In turn, `CCc1c(Nc2cc(-n3nc(C)c(C(=O)N4CCCC4C)c3C)ncn2)nn(C)c1-c1ccc(F)cc1` (single isomer, unassigned) [Example 106, [1-ent-(6-{[4-ethyl-5-(4-fluorophenyl)-1-methyl-1H-pyrazol-3-yl]amino}pyrimidin-4-yl)-3,5-dimethyl-1H-pyrazol-4-yl](2-methylpyrrolidin-1-yl)methanone] showed an IC50 of 120 nM.

In turn, `CCc1c(Nc2cc(-n3nc(C)c(C(=O)N4CCCC4C)c3C)ncn2)nn(C)c1-c1ccc(F)cc1` (single isomer, unassigned) [Example 107, [1-ent-(6-{[4-ethyl-5-(4-fluorophenyl)-1-methyl-1H-pyrazol-3-yl]amino}pyrimidin-4-yl)-3,5-dimethyl-1H-pyrazol-4-yl](2-methylpyrrolidin-1-yl)methanone] came in with an IC50 of 293 nM.

Consider `COC(C)c1c(C)nn(-c2cc(Nc3c(C)c(-c4ccc(F)cc4)nn3CC3CC3)ncn2)c1C` (single isomer, unassigned) [Example 327, N-[1-(cyclopropylmethyl)-3-(4-fluorophenyl)-4-methyl-1H-pyrazol-5-yl]-6-{4-[1-methoxyethyl]-3,5-dimethyl-1H-pyrazol-1-yl}pyrimidin-4-amine], for which it took 4 nM to reach half-maximal inhibition (IC50).

As for `COC(C)c1c(C)nn(-c2cc(Nc3c(C)c(-c4ccc(F)cc4)nn3CC3CC3)ncn2)c1C` (single isomer, unassigned) [Example 328, N-[1-(cyclopropylmethyl)-3-(4-fluorophenyl)-4-methyl-1H-pyrazol-5-yl]-6-{4-[1-methoxyethyl]-3,5-dimethyl-1H-pyrazol-1-yl}pyrimidin-4-amine], the IC50 turned out to be 4 nM.

Source of the values: US11208400B2, “Substituted 6-(1H-pyrazol-1-yl)pyrimidin-4-amine derivatives and uses thereof” (Bayer Aktiengesellschaft, priority 2016, dated 2021).
